Common to all, as to format: functional
One assay has as its system A549. Kind of assay: Cytotoxicity against human A549 cells after 24 hrs by SRB assay. Particulars: A549, 24 h, read-out: ED50 (the source's name). In general terms: In SRB staining, fixed cells bind dye roughly in proportion to their protein.
Another assay concerns MCF7. Put plainly: Cytotoxicity against human MCF7 cells after 24 hrs by SRB assay. The following applies: MCF7, 24 h, read-out: ED50 (the source's name).
Another assay has as its system RPMI. Put plainly: (§1) Cytotoxicity against human RPMI cells after 24 hrs by SRB assay.
For the next assay, the system named is U-251. Kind of assay: Cytotoxicity against human U251 cells after 24 hrs by SRB assay. Particulars: for EC50: U-251, 24 h, read-out: ED50 (the source's name).
The next assay has as its system HT-29. Kind of assay: Cytotoxicity against human HT-29 cells after 24 hrs by SRB assay. Particulars: HT-29, 24 h, read-out: ED50 (the source's name).
Assay [1] is described as follows: as §1. The following applies: read-out: ED50 (the source's name).

Converted amounts (≈) assume the structure as drawn. The source made the active and inactive calls. The rule behind the calls is not given here. A value given as a limit tells only on which side of the number the result lay.

On to `C[C@@H]1O[C@@H](O[C@H]2C[C@](O)(C(=O)CBr)Cc3c(O)c4c(c(O)c32)C(=O)c2ccccc2C4=O)[C@H](F)[C@H](O)[C@@H]1O`, for which the EC50 with A549 amounted to 0.6 µg/mL (≈ 1.01 µM); with MCF7, 0.4 µg/mL (≈ 0.672 µM). Moreover, the ED50 entry in the assay on RPMI and in the assay with U-251 was “inactive” in each case.
With `CC(=O)O[C@H]1[C@@H](F)[C@H](O[C@H]2C[C@](O)(C(C)=O)Cc3c(O)c4c(c(O)c32)C(=O)c2ccccc2C4=O)O[C@@H](C)[C@H]1OC(C)=O`, the EC50 in the assay on A549 is 0.07 µg/mL (≈ 0.117 µM); with HT-29 it was 0.001 µg/mL (≈ 0.00167 µM); in the assay with MCF7 it was 0.06 µg/mL (≈ 0.0999 µM); in assay [1] it was 0.05 µg/mL (≈ 0.0833 µM); in the assay on U-251 it was 0.1 µg/mL (≈ 0.167 µM).
Turning to `COc1cccc2c1C(=O)c1c(O)c3c(c(O)c1C2=O)C[C@@](O)(C(=O)CO)C[C@@H]3O[C@H]1C[C@H](N)[C@H](O)[C@H](C)O1` [DOXORUBICIN], the EC50 was 0.03 µg/mL (≈ 0.0552 µM) in the assay on A549, 0.03 µg/mL (≈ 0.0552 µM) in the assay with MCF7, 0.02 µg/mL (≈ 0.0368 µM) in assay [1] and 0.02 µg/mL (≈ 0.0368 µM) in the assay with U-251.
For `C[C@@H]1O[C@@H](O[C@H]2C[C@](O)(C(=O)CO)Cc3c(O)c4c(c(O)c32)C(=O)c2ccccc2C4=O)[C@H](F)[C@H](O)[C@@H]1O`, the EC50 in the assay with A549 is 0.008 µg/mL (≈ 0.015 µM); in the assay with HT-29, greater than 0.001 µg/mL; in the assay with MCF7, 0.02 µg/mL (≈ 0.0376 µM); in assay [1], 0.02 µg/mL (≈ 0.0376 µM); with U-251, 0.02 µg/mL (≈ 0.0376 µM).
Consider `CC(=O)[C@]1(O)Cc2c(O)c3c(c(O)c2[C@@H](O[C@@H]2O[C@@H](C)[C@@H](O)[C@@H](O)[C@H]2F)C1)C(=O)c1ccccc1C3=O`, for which the EC50 in the assay with A549 was 0.008 µg/mL (≈ 0.0155 µM); in the assay with MCF7 it was 0.03 µg/mL (≈ 0.0581 µM); in assay [1], 0.03 µg/mL (≈ 0.0581 µM); with U-251, 0.04 µg/mL (≈ 0.0774 µM).
